Holding throughout (assay type): functional
Assay [1] relates to Acinetobacter calcoaceticus. The assay can be described thus: Antibacterial activity against Acinetobacter calcoaceticus assessed as inhibition of bacterial growth by two-fold serial broth dilution method.
The next assay deals with Enterococcus faecalis. The assay can be described thus: Antibacterial activity against Enterococcus faecalis assessed as inhibition of bacterial growth by two-fold serial broth dilution method. In general terms: In broth dilution the organism is exposed to a series of concentrations in liquid medium.
In another assay the test system is Listeria. Description: Antibacterial activity against Listeria sps. assessed as inhibition of bacterial growth by two-fold serial broth dilution method.
Another assay has as its system Staphylococcus aureus. Description: Antibacterial activity against Staphylococcus aureus assessed as inhibition of bacterial growth by two-fold serial broth dilution method.
The next assay has as its system Bacillus subtilis. Description: Antibacterial activity against Bacillus subtilis assessed as inhibition of bacterial growth by two-fold serial broth dilution method.
For a further assay, the system named is Salmonella enterica. The assay can be described thus: Antibacterial activity against Salmonella enterica assessed as inhibition of bacterial growth by two-fold serial broth dilution method.
Another assay relates to Escherichia coli. The assay can be described thus: Antibacterial activity against Escherichia coli assessed as inhibition of bacterial growth by two-fold serial broth dilution method.
The test system of a further assay is Serratia marcescens. Description: Antibacterial activity against Serratia marcescens assessed as inhibition of bacterial growth by two-fold serial broth dilution method.
The test system of another assay is MOLT-4. Description: Cytotoxicity against human MOLT-4 cells assessed as inhibition of cell growth at 10 uM.
A further assay deals with SK-MEL-5. Description: Cytotoxicity against human SK-MEL-5 cells assessed as inhibition of cell growth at 10 uM.
Another assay has as its system HOP-92. The assay can be described thus: Cytotoxicity against human HOP-92 cells assessed as inhibition of cell growth at 10 uM.

Values after ≈ are worked out from the molar mass of the structure shown. Active and inactive are the calls of the source. No cut-off for these calls is given here.

As usually defined, the MIC is the lowest concentration that inhibits growth of the organism. Turning to `c1ccc(CNc2nc(NCc3ccccc3)nc(N3CCOCC3)n2)cc1`, the MIC in [1] is 200 µg/mL (≈ 531 µM); in the assay on Enterococcus faecalis, 400 µg/mL (≈ 1060 µM); in the assay with Staphylococcus aureus, 200 µg/mL (≈ 531 µM). Moreover, the MIC entry with Listeria, in the assay with Bacillus subtilis, in the assay on Salmonella enterica, in the assay with Escherichia coli and in the assay with Serratia marcescens was “inactive” each time.

Usually inhibition stands for the percentage by which the read-out fell short of the control. For `O=c1[nH]cc(F)c(=O)[nH]1` [FLUOROURACIL], the inhibition at 10 µM with MOLT-4 came to 42.3%; with SK-MEL-5 it was 66.3%; in the assay with HOP-92 it was 50.6%.

As to `O=C1c2cccc3cccc(c23)C(=O)N1Nc1nc(Nc2ccc(F)cc2)nc(N2CCOCC2)n1`, the MIC in assay [1] was 200 µg/mL (≈ 412 µM); in the assay with Enterococcus faecalis, 200 µg/mL (≈ 412 µM); in the assay on Staphylococcus aureus it was 50 µg/mL (≈ 103 µM); in the assay with Bacillus subtilis, 200 µg/mL (≈ 412 µM); in the assay on Salmonella enterica, 200 µg/mL (≈ 412 µM); in the assay with Escherichia coli, 400 µg/mL (≈ 824 µM). For the same compound, the MIC in the assay with Serratia marcescens was determined as 200 µg/mL (≈ 412 µM). For the same compound, in the assay on Listeria, the MIC result was “inactive”.

Turning to `CCN(CC)CCNc1nc(NN2C(=O)c3cccc4cccc(c34)C2=O)nc(N2CCOCC2)n1`, the MIC in assay [1] was 200 µg/mL (≈ 408 µM); in the assay on Enterococcus faecalis it was 200 µg/mL (≈ 408 µM); with Listeria it was 0.19 µg/mL (≈ 0.387 µM); with Staphylococcus aureus it was 100 µg/mL (≈ 204 µM); in the assay with Bacillus subtilis, 50 µg/mL (≈ 102 µM); in the assay on Salmonella enterica, 200 µg/mL (≈ 408 µM). Besides, the MIC in the assay with Escherichia coli came out at 200 µg/mL (≈ 408 µM); in the assay with Serratia marcescens it was 12.5 µg/mL (≈ 25.5 µM).

Consider `CN1CCN(c2nc(NN3C(=O)c4cccc5cccc(c45)C3=O)nc(N3CCOCC3)n2)CC1`, for which the MIC in assay [1] is 200 µg/mL (≈ 421 µM); with Enterococcus faecalis, 200 µg/mL (≈ 421 µM); with Listeria it was 0.006 µg/mL (≈ 0.0126 µM); with Staphylococcus aureus, 1.56 µg/mL (≈ 3.29 µM); in the assay on Bacillus subtilis it was 200 µg/mL (≈ 421 µM); in the assay with Salmonella enterica, 200 µg/mL (≈ 421 µM). Also, the MIC in the assay on Escherichia coli was found to be 100 µg/mL (≈ 211 µM); with Serratia marcescens, 12.5 µg/mL (≈ 26.3 µM).

Turning to `N#Cc1ccc(CNc2nc(NN3C(=O)c4cccc5cccc(c45)C3=O)nc(N3CCOCC3)n2)cc1`, the MIC in assay [1] was 100 µg/mL (≈ 197 µM); with Enterococcus faecalis, 100 µg/mL (≈ 197 µM); with Listeria, 200 µg/mL (≈ 395 µM); in the assay with Staphylococcus aureus, 100 µg/mL (≈ 197 µM); in the assay on Bacillus subtilis it was 400 µg/mL (≈ 790 µM); in the assay with Salmonella enterica, 400 µg/mL (≈ 790 µM). The MIC in the assay with Escherichia coli and in the assay with Serratia marcescens was 200 µg/mL (≈ 395 µM) in each case.

`C#CCNc1nc(NN2C(=O)c3cccc4cccc(c34)C2=O)nc(N2CCOCC2)n1`: the MIC in [1] is 200 µg/mL (≈ 466 µM); with Enterococcus faecalis it was 0.048 µg/mL (≈ 0.112 µM); in the assay on Listeria, 200 µg/mL (≈ 466 µM); with Staphylococcus aureus, 50 µg/mL (≈ 116 µM); in the assay on Bacillus subtilis it was 25 µg/mL (≈ 58.2 µM); in the assay with Salmonella enterica it was 100 µg/mL (≈ 233 µM). For the same compound, the MIC in the assay with Escherichia coli turned out to be 100 µg/mL (≈ 233 µM); in the assay with Serratia marcescens, 200 µg/mL (≈ 466 µM).

Turning to `CCN1CCN(c2nc(NN3C(=O)c4cccc5cccc(c45)C3=O)nc(N3CCOCC3)n2)CC1`, the MIC in assay [1] is 200 µg/mL (≈ 409 µM); in the assay with Enterococcus faecalis it was 200 µg/mL (≈ 409 µM); with Listeria, 3.12 µg/mL (≈ 6.39 µM); in the assay with Staphylococcus aureus, 50 µg/mL (≈ 102 µM); in the assay on Bacillus subtilis, 200 µg/mL (≈ 409 µM); in the assay on Salmonella enterica, 200 µg/mL (≈ 409 µM). Moreover, the MIC with Escherichia coli and in the assay on Serratia marcescens was 100 µg/mL (≈ 205 µM) in each case.

`COc1ccc(CNc2nc(NN3C(=O)c4cccc5cccc(c45)C3=O)nc(N3CCOCC3)n2)cc1`: the MIC was 100 µg/mL (≈ 195 µM) in assay [1]; 3.12 µg/mL (≈ 6.11 µM) in the assay on Enterococcus faecalis; 50 µg/mL (≈ 97.7 µM) in the assay on Listeria; 6.25 µg/mL (≈ 12.2 µM) in the assay with Staphylococcus aureus; 12.5 µg/mL (≈ 24.4 µM) in the assay with Bacillus subtilis; 100 µg/mL (≈ 195 µM) in the assay on Salmonella enterica. Moreover, the MIC in the assay with Escherichia coli and in the assay with Serratia marcescens was 200 µg/mL (≈ 391 µM) each time.

Turning to `Cc1ccc(CNc2nc(NN3C(=O)c4cccc5cccc(c45)C3=O)nc(N3CCOCC3)n2)cc1`, the MIC was 100 µg/mL (≈ 202 µM) in assay [1]; 50 µg/mL (≈ 101 µM) with Enterococcus faecalis; 25 µg/mL (≈ 50.4 µM) with Listeria; 12.5 µg/mL (≈ 25.2 µM) in the assay on Staphylococcus aureus; 12.5 µg/mL (≈ 25.2 µM) in the assay with Bacillus subtilis; 200 µg/mL (≈ 404 µM) in the assay with Salmonella enterica. Moreover, the MIC in the assay on Escherichia coli turned out to be 200 µg/mL (≈ 404 µM); in the assay with Serratia marcescens, 100 µg/mL (≈ 202 µM).

Source of the values: ChEMBL document CHEMBL5620398, “Membrane-active substituted triazines as antibacterial agents against Staphylococcus aureus with potential for low drug resistance and broad activity” (Eur J Med Chem, 2023).
